From PubChem BioAssay (NCI)
Where “and” joins values, the source holds several entries; their conditions need not be identical. Equal values may be shown once.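 The compound was tested at five concentrations on cells cultured in 96-well plates, with a 48-hour exposure period. GI50 = concentration required for 50% inhibition of growth. TGI marks complete inhibition of growth.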

What was measured:
Experiment in all cases: NCI tumour cell line growth inhibition, 48 h
[1] = system: DMS 114 small cell lung
[2] = system: DMS 273 small cell lung
[3] = system: HOP-18 NSCLC
[4] = system: KM20L2 colon
[5] = system: LXFL 529 NSCLC
[6] = system: M19-MEL melanoma
[7] = system: XF 498 CNS
[8] = system: MDA-N
[9] = system: RXF-631 renal
[10] = system: P388 leukemia
[11] = system: P388/ADR leukemia
[12] = system: SN12K1 renal

SMILES	TGI [1] [µM]	TGI [2]	TGI [3] [µM]	TGI [4]	TGI [5] [µM]	TGI [6]	TGI [7]	TGI [8] [µM]	TGI [9] [µM]	other results
Cc1c(C(=O)/C=C/c2ccc([N+](=O)[O-])cc2)[n+](=O)c2ccccc2n1[O-]	> 100	> 100 µM	> 100	> 100 µM	> 100	> 100 µM	> 100 µM	–	–	–
O=C(CCl)N1CCN(c2ccccn2)CC1	–	–	–	–	–	–	–	42.4	–	–
c1ccc(-c2sc(-c3ccccc3)c3c2C(c2ccccc2)c2c(-c4ccccc4)sc(-c4ccccc4)c2C3c2ccccc2)cc1 (stereo not given)	> 100	> 100 µM	–	> 100 µM	> 100	> 100 µM	–	–	–	–
Nc1nc(N)c2c(Cl)c(CNc3ccc(Cl)c(Cl)c3)ccc2n1	4.85	3.87 µM	17.1	18.6 µM	12.3	12.5 µM	7.71 µM	17	–	–
O=c1[nH]c(-c2ccccc2)nc2cc([N+](=O)[O-])c(/C(Cl)=C/c3ccccc3)cc12	> 100	> 100 µM	–	> 100 µM	78.4	> 100 µM	–	–	–	–
[CH3][Ge]([CH3])([CH2]CC#N)[S]c1ccccc1	–	29.5 µM	> 100	47.9 µM	27.5	48 µM	–	–	–	GI50 [2]: 6100 nM; GI50 [3]: > 100000 nM; GI50 [4]: 21600 nM; GI50 [5]: 13.5 µM; GI50 [6]: 16000 nM
NC(=O)NC(=O)Nc1ccc(Br)cc1	–	–	–	–	–	–	–	> 100	–	–
C/C(=C\CNc1ncnc2c1ncn2C1CCCCO1)COP(=O)(O)O (stereo not given)	> 100	> 100 µM	> 100	> 100 µM	> 100	> 100 µM	> 100 µM	–	> 100	–
COc1ccc(/C=C/C(=O)OC2CC34CCNC35CC(OC5(OC)C2OC)c2ccc(OC)c(O)c24)cc1O (stereo not given)	–	–	–	–	–	–	–	> 100	–	–
COC(=O)NC1=Nc2ccccc2C(=O)NN1	–	–	–	–	–	–	–	> 100	–	–
C/C(=N\O)C1CC(CC(=O)O)C1(C)C (stereo not given)	–	–	–	–	–	–	–	> 100	–	–
NNC(=O)N/N=C(/CC1(O)C(=O)Nc2ccc(Br)cc21)c1ccccc1 (stereo not given)	–	> 100 µM	–	> 100 µM	> 100	> 100 µM	38.5 µM	–	> 100	–
CCCN(CCCC(NC(C)=O)C(=O)NCc1ccccc1)C(=O)N(C)N=O (stereo not given)	> 100	> 100 µM	–	> 100 µM	> 100	> 100 µM	> 100 µM	–	–	–
Cc1[nH]c(N)nc(=S)c1CCCNc1ccccc1	–	–	–	–	–	–	–	> 100	–	–
O=C1C=C(Nc2cc(Cl)ccc2Cl)c2ccccc2C1=O	76.2	68.6 µM	70	> 100 µM	–	29.2 µM	–	–	> 100	–
CCP(C)(=O)CC	> 100	> 100 µM	> 100	> 100 µM	> 100	> 100 µM	> 100 µM	–	> 100	–
CCOC(=O)C1(C)C2=CC=C(O2)C(C)(C)C2=CC=C(O2)C(C)(C)C2=CC=C(O2)C(C)(C)C2=CC=C1O2	–	> 100 µM	> 100	> 100 µM	> 100	> 100 µM	> 100 µM	–	> 100	–
Cc1cc(NS(=O)(=O)c2ccc(NC(=O)c3cccc4c(Nc5ccc(S(=O)(=O)Nc6cc(C)on6)cc5)c5ccc(Cl)cc5nc34)cc2)no1	> 100	> 100 µM	> 100	> 100 µM	> 100	> 100 µM	> 100 µM	–	–	–
CCc1nc(N)nc(N)c1-c1ccc(N2CCNCC2)c([N+](=O)[O-])c1	–	–	–	–	–	–	–	> 100	–	–
O=C(CC(=O)N1N=C(n2ccc3ccccc32)CC1c1ccccc1)Nc1ccccc1Cl (stereo not given)	> 100	> 100 µM	> 100	> 100 µM	> 100	> 100 µM	–	–	> 100	–
O=C1NC(c2cccc3ccccc23)Nc2ccc(Cl)cc21 (stereo not given)	–	–	–	–	–	–	–	0.000218	–	–
CCCCN(CCCC)CC(C(=O)Nc1ccc([N+](=O)[O-])cc1[N+](=O)[O-])/C(C)=N\NC(=O)c1ccncc1 (stereo not given)	> 100	> 100 µM	–	> 100 µM	> 100	> 100 µM	> 100 µM	–	> 100	–
C=C1C2CCCC1C1(S(C)(=O)=O)CCCCC21O (stereo not given)	> 100	> 100 µM	> 100	> 100 µM	> 100	> 100 µM	–	–	–	–

SMILES	TGI [1] [µM]	TGI [2]	TGI [3] [µM]	TGI [4]	TGI [5] [µM]	TGI [6]	TGI [7]	TGI [8] [µM]	TGI [9] [µM]	other results
C=C(CC)C(=O)c1ccc(OCC(=O)O)c(Cl)c1Cl	–	–	–	–	–	–	–	> 55.2	–	–
NC(N)=NCCCC(Nc1c2ccccc2nc2ccccc12)C(=O)O (stereo not given)	–	> 100 µM	–	> 100 µM	> 100	> 100 µM	–	–	> 100	–
O=C(CCl)N1CCN(c2ccccc2)CC1	–	–	–	–	–	–	–	39.9	–	–
C=C1CC[C@@](C)(c2cc(Br)c(C)cc2OC(C)=O)[C@H]1C	–	–	–	–	–	–	–	26.6	–	GI50 [8]: 11.7 µM
O=C1CCC2(c3ccccc3)OCC([C@@H](O)c3ccccc3)N12 (stereo not given in full)	> 100	> 100 µM	> 100	> 100 µM	–	> 100 µM	> 100 µM	–	–	–
Cc1[nH]c2ccccc2c1/C=C/c1c(C)[nH]c2ccccc12	> 100	> 100 µM	–	> 100 µM	> 100	> 100 µM	> 100 µM	–	–	–
Nc1nc2c(ncn2C2OC(CO)C(O)C2O)c(=O)o1 (stereo not given)	> 100	> 100 µM	> 100	> 100 µM	> 100	> 100 µM	> 100 µM	–	> 100	–
CN(C)Cc1ccc(O)c(CN(C)C)n1	–	–	–	–	–	–	–	> 100	–	–
Cc1cc2c3c(nc4ccccc42)C(=O)c2cccnc2-c3n1	–	–	–	–	–	–	–	0.294	–	GI50 [8]: 0.152 µM
CC[C@@]1(O)C(=O)OCc2c1cc1n(c2=O)Cc2cc3cc(O)ccc3nc2-1	–	0.47 µM and 1.74 µM	5.2	8.14 µM and 4.97 µM	1.91	0.589 µM and 1.01 µM	0.183 µM and 0.472 µM	–	–	GI50 [2]: 27.2 nM and 21.7 nM; GI50 [4]: 186 nM; GI50 [6]: 63.4 nM; TGI [10]: 1430 nM; TGI [11]: 1030 nM; TGI [12]: 937 nM; GI50 [7]: 51.8 nM
CC1CN1c1c(C(=O)/C=C/c2ccc(F)cc2)c(-c2ccccc2)nn(C)c1=O (stereo not given)	31.1	–	33.2	31.6 µM	31.7	27.7 µM	28.8 µM	–	–	–
Cc1cc(C)c([O-])c(-[n+]2c(-c3ccccc3)cc(-c3ccccc3)cc2-c2ccccc2)c1	12.3	12.1 µM	16.2	12.9 µM	14.4	13.2 µM	6.21 µM	–	26.4	–
COC(=O)C1C(=O)C(C(=O)OC)C2CCC1N2C (stereo not given)	–	–	–	–	–	–	–	73.8	–	–
COc1ccc(N=Nc2c(-c3ccccc3)nn(C(=O)CC(=O)Nc3ccc(OC)cc3)c2-c2ccccc2)cc1	> 100	> 100 µM	> 100	–	> 100	> 100 µM	76.1 µM	–	> 100	–
COC1(OC)CCC2(C)OC(c3ccccc3)C1O2 (stereo not given)	> 100	> 100 µM	–	> 100 µM	> 100	–	> 100 µM	–	–	–
CC1(C)CCC2(C(=O)O)C(O)CC3(C)C(=CCC4C5(C)CCC(OC6OCC(O)C(O)C6OC6OCC(O)C(O)C6OC6OCC(O)C(OC7OC(CO)C(O)C(O)C7O)C6O)C(C)(C)C5CCC43C)C2C1 (stereo not given)	–	–	–	–	–	–	–	57.8	–	–
COC(=O)C1=C(C)N(NC(N)=O)C2(N)N(NC(N)=O)C(C)=C(C(=O)OC)C12C#N (stereo not given)	> 100	> 100 µM	> 100	> 100 µM	–	> 100 µM	> 100 µM	–	> 100	–
CN(C)CC1CCCC/C1=N\OC(=O)c1ccccc1 (stereo not given)	> 100	> 100 µM	> 100	> 100 µM	> 100	> 100 µM	> 100 µM	–	> 100	–
COc1ccc(C(=O)C(c2ccc(OC)cc2)C2(O)C(=O)Nc3c(Cl)cc(Cl)cc32)cc1 (stereo not given)	42	46.8 µM	44.8	68 µM	28.4	–	47.2 µM	–	–	–
CC(C)(C)c1cc(Cc2ccc(S(C)(=O)=O)cc2)c(O)c(C(C)(C)C)c1	26.3	27.3 µM	37.2	29.1 µM	29.2	32.7 µM	28.7 µM	–	–	–
CC(=O)NNc1nc(C)c(C(=O)/C=C/c2ccc(N(C)C)cc2)s1	> 100	> 100 µM	> 100	> 100 µM	–	–	–	–	> 100	–
O=C1CC[C@@H](S(=O)(=O)c2ccccc2)[C@H](/C=C/c2ccccc2)O1	> 100	–	> 100	–	> 100	> 100 µM	–	–	–	–
CCN(CC)CCN1C(=O)c2c(c3c4cccc(Cl)c4n(C4OC(CO)C(OC)C(O)C4O)c3c3[nH]c4c(Cl)cccc4c23)C1=O (stereo not given)	–	–	–	0.0103 µM	–	–	0.284 µM	0.21	–	GI50 [1]: < 0.1 nM; GI50 [2]: < 0.1 nM; GI50 [3]: 102 nM; GI50 [4]: 0.446 nM; GI50 [5]: 0.000116 µM; GI50 [6]: 0.144 nM
